Conditions: Transpiration method

CC(O)CCO (stereo not drawn) [1,3-butanediol]
Liquid
Conditions	vapor or sublimation pressure [kPa]
288.3 K	0.00139
290.3 K	0.00168
292.9 K	0.00235
303.5 K	0.00651
308.3 K	0.00994
311.3 K	0.01301
314.3 K	0.01723
317.3 K	0.02182
320.3 K	0.02852
323.3 K	0.03664
326.3 K	0.04618
329.3 K	0.05855
332.3 K	0.07427

CC(C)(CO)CO [2,2-dimethyl-1,3-propanediol]
Conditions	vapor or sublimation pressure [kPa]
283.9 K, Crystal 2	0.00029
288.5 K, Crystal 2	0.00052
291.2 K, Crystal 2	0.00074
295.2 K, Crystal 2	0.00119
298.4 K, Crystal 2	0.00174
301.7 K, Crystal 2	0.00261
304.7 K, Crystal 2	0.00367
307.9 K, Crystal 2	0.00535
309.4 K, Crystal 2	0.00615
311.3 K, Crystal 2	0.00735
314.3 K, Crystal 1	0.01057
317.3 K, Crystal 1	0.01416
320.2 K, Crystal 1	0.01849
323.4 K, Crystal 1	0.02447
326.4 K, Crystal 1	0.03147
329.4 K, Crystal 1	0.04056
332.3 K, Crystal 1	0.05153
335.3 K, Crystal 1	0.06721
338.2 K, Crystal 1	0.08442
341.2 K, Crystal 1	0.1056
344.2 K, Crystal 1	0.1314
347.2 K, Crystal 1	0.1654

CC(O)CC(C)O (stereo not drawn) [2,4-pentanediol]
Liquid
Conditions	vapor or sublimation pressure [kPa]
297.2 K	0.0048
300.2 K	0.00645
303.2 K	0.0085
306.2 K	0.0111
309.2 K	0.01453
312.2 K	0.01892
315.3 K	0.0239
318.4 K	0.03119
321.4 K	0.04095
324.4 K	0.05507
327.5 K	0.07024
330.5 K	0.08735
333.4 K	0.1096
336.5 K	0.1376
339.2 K	0.1648
344.4 K	0.2419
347.3 K	0.2929

CC(CO)CO [2-methyl-1,3-propanediol]
Liquid
Conditions	vapor or sublimation pressure [kPa]
297.3 K	0.00204
300.4 K	0.00285
303.4 K	0.00364
306.4 K	0.0049
309.4 K	0.00661
312.4 K	0.00841
312.5 K	0.00861
314.5 K	0.00996
316.4 K	0.01205
318.5 K	0.0141
319.5 K	0.01551
321.4 K	0.01842
322.5 K	0.01984
323.5 K	0.02169
323.6 K	0.02202
326.4 K	0.02689
326.6 K	0.02817
328.5 K	0.03259
328.6 K	0.03396
331.4 K	0.04115
333.4 K	0.0469
336.3 K	0.05931
338.6 K	0.07262
341.4 K	0.08656
342.6 K	0.09448
343.5 K	0.1068
347.6 K	0.1379
349.3 K	0.1589
352.5 K	0.1921
355.4 K	0.2407
357.5 K	0.2643

CC(O)CC(C)(C)O (stereo not drawn) [2-methyl-2,4-pentanediol]
Liquid
Conditions	vapor or sublimation pressure [kPa]
285.2 K	0.0025
287.9 K	0.00333
291.2 K	0.00474
294.2 K	0.00648
297.2 K	0.00858
300.2 K	0.01147
303.2 K	0.01471
306.5 K	0.01997
309.4 K	0.02565
312.5 K	0.03274
315.2 K	0.04092
318.2 K	0.05208
321.2 K	0.06475
323.3 K	0.07752
326.3 K	0.09448
329.4 K	0.1239

OCCCO [propan-1,3-diol]
Liquid
Conditions	vapor or sublimation pressure [kPa]
293.5 K	0.00186
303.2 K	0.00447
309.3 K	0.00788
312.2 K	0.00997
315.3 K	0.01329
318.4 K	0.01659
321.3 K	0.02168
324.3 K	0.02764
327.3 K	0.03558
330.3 K	0.04372
333.5 K	0.05556
336.4 K	0.06842
339.4 K	0.08464
342.3 K	0.1053
